Patent publication US7902252B2, “Inhibitors of D-amino acid oxidase” (Sepracor, Inc., priority 2007, dated 2011)

How the values were obtained:
Human DAAO = Human DAAO (Homo sapiens, UniProt P14920); assay: D-Amino Acid Oxidase enzyme assay (D-serine, horseradish peroxidase/Amplex Red coupled fluorescence); format: biochemical; conditions: D-serine 5 mM, pH 7.4
Outline: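 D-serine substrate at 5 mM (Km), 50 mM sodium phosphate pH 7.4; H2O2 output coupled via 4 U/mL horseradish peroxidase and 50 μM Amplex Red to resorufin fluorescence. Reaction started with enzyme; H2O2 control checked coupling interference; IC50 from inhibition curves.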

[1] = test system: D-serine levels in the cerebellum; assay: In vivo elevation of D-serine levels in the cerebellum; set-up: species or system Mice (C57BL/6); conditions: mice, intraperitoneal;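 also: Cutoffs are cerebellum D-serine in nmol/g wet tissue weight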
Procedure: […] Animals are sacrificed at either 2 or 6 h post compound administration with an N=3 per time point. At sacrifice, trunk blood is collected into tubes containing potassium EDTA, which are then centrifuged to permit isolation of plasma. The cerebellum is dissected from each animal. Plasma and cerebellum samples are stored at −80° C. until samples are analyzed (LC/MS/MS).

Sequence of Human DAAO (P14920 whole entry): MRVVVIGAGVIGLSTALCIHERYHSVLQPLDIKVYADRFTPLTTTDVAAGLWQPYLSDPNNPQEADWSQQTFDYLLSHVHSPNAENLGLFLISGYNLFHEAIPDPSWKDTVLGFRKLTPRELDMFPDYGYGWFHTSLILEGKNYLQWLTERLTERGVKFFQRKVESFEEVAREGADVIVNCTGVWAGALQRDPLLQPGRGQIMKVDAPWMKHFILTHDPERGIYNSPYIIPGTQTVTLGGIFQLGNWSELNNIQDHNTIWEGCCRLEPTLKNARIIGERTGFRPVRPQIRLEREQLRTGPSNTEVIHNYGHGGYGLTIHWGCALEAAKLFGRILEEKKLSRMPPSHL

| Compound | IC50 (Human DAAO) | Cerebellum D-serine at 2 hours ([1]; dose 30 mg/kg) | Cerebellum D-serine at 6 hours ([1]; dose 30 mg/kg) | also measured |
| --- | --- | --- | --- | --- |
| O=C(O)c1cc2c([nH]1)C(Cc1cc(F)cc(Cl)c1)CC2 (stereo not shown) [Compound 124, 6-(3-chloro-5-fluorobenzyl)-1,4,5,6-tetrahydrocyclopenta[b]pyrrole-2-carboxylic acid] | ≤ 0.1 µM | – | – | Cerebellum D-serine at 2 hours ([1]; dose 60 mg/kg): (−) (<2.5 = (−)); Cerebellum D-serine at 6 hours ([1]; dose 60 mg/kg): (−) (<2.5 = (−)) |
| O=C(O)c1cc2c([nH]1)CCC2c1cccc(F)c1 (single isomer, unassigned) [Compound 96, 4-(3-fluorophenyl)-1,4,5,6-tetrahydrocyclopenta[b]pyrrole-2-carboxylic acid] | ≤ 0.1 µM | (+) (2.5-4.9 = (+)) | (+) (2.5-4.9 = (+)) | – |
| O=C(O)c1cc2c([nH]1)CCC2Cc1ccc(F)c(Cl)c1 (single isomer, unassigned) [Compound 50, 4-(3-chloro-4-fluorobenzyl)-1,4,5,6-tetrahydrocyclopenta[b]pyrrole-2-carboxylic acid] | – | (++) (>5 = (++)) | (+) (2.5-4.9 = (+)) | – |
| COc1cccc(CC2CCc3cc(C(=O)O)[nH]c32)c1 (single isomer, unassigned) [Compound 131, 6-(3-methoxybenzyl)-1,4,5,6-tetrahydrocyclopenta[b]pyrrole-2-carboxylic acid] | ≤ 0.1 µM | (+) (2.5-4.9 = (+)) | (+) (2.5-4.9 = (+)) | – |
| O=C(O)c1cc2c([nH]1)CCC2Cc1cccc(F)c1 (stereo not shown) [Compound 54, 4-(3-fluorobenzyl)-1,4,5,6-tetrahydrocyclopenta[b]pyrrole-2-carboxylic acid] | ≤ 0.1 µM | (+) (2.5-4.9 = (+)) | (+) (2.5-4.9 = (+)) | – |
| O=C(O)c1cc2c([nH]1)CCC2Cc1ccc(Cl)c(Cl)c1 (single isomer, unassigned) [Compound 59, 4-(3,4-dichlorobenzyl)-1,4,5,6-tetrahydrocyclopenta[b]pyrrole-2-carboxylic acid] | ≤ 0.1 µM | – | – | Cerebellum D-serine at 2 hours ([1]; dose 10 mg/kg): (+) (2.5-4.9 = (+)); Cerebellum D-serine at 6 hours ([1]; dose 10 mg/kg): (+) (2.5-4.9 = (+)) |
| O=C(O)c1cc2c([nH]1)CCC2Cc1ccc(F)c(F)c1 (single isomer, unassigned) [Compound 44, 4-(3,4-difluorobenzyl)-1,4,5,6-tetrahydrocyclopenta[b]pyrrole-2-carboxylic acid] | ≤ 0.1 µM | (+) (2.5-4.9 = (+)) | (+) (2.5-4.9 = (+)) | – |
| O=C(O)c1cc2c([nH]1)CCC2c1cc(F)cc(F)c1 (single isomer, unassigned) [Compound 100, 4-(3,5-difluorophenyl)-1,4,5,6-tetrahydrocyclopenta[b]pyrrole-2-carboxylic acid] | ≤ 0.1 µM | (+) (2.5-4.9 = (+)) | (+) (2.5-4.9 = (+)) | – |
| O=C(O)c1cc2c([nH]1)CCC2 [Compound 1, 1,4,5,6-tetrahydro-cyclopenta[b]pyrrole-2-carboxylic acid] | ≤ 0.1 µM | (++) (>5 = (++)) | (++) (>5 = (++)) | – |
| Cc1cccc(CC2CCc3[nH]c(C(=O)O)cc32)c1 (stereo not shown) [Compound 70, 4-(3-methylbenzyl)-1,4,5,6-tetrahydrocyclopenta[b]pyrrole-2-carboxylic acid] | ≤ 0.1 µM | – | – | Cerebellum D-serine at 2 hours ([1]; dose 60 mg/kg): (+) (2.5-4.9 = (+)); Cerebellum D-serine at 6 hours ([1]; dose 60 mg/kg): (+) (2.5-4.9 = (+)) |
| CCCC1CCc2[nH]c(C(=O)O)cc21 (single isomer, unassigned) [Compound 8, 4-propyl-1,4,5,6-tetrahydrocyclopenta[b]pyrrole-2-carboxylic acid] | ≤ 0.1 µM | (++) (>5 = (++)) | (+) (2.5-4.9 = (+)) | – |
| O=C(O)c1cc2c([nH]1)CCC2=O [Compound 2, 4-oxo-1,4,5,6-tetrahydrocyclopenta[b]pyrrole-2-carboxylic acid] | ≤ 100 µM | – | – | – |
| O=C(O)c1cc2c([nH]1)CCC2Cc1cccc(C2CCOC2)c1 (stereo not shown) [Compound 90, 4-(3-(tetrahydrofuran-3-yl)benzyl)-1,4,5,6-tetrahydrocyclopenta[b]pyrrole-2-carboxylic acid] | ≤ 1 µM | – | – | – |
| O=C(O)c1cc2c([nH]1)CCC2Cc1cccc(-c2ccc(O)cc2)c1 (stereo not shown) [Compound 85, 4-((4′-hydroxybiphenyl-3-yl)methyl)-1,4,5,6-tetrahydrocyclopenta[b]pyrrole-2-carboxylic acid] | ≤ 100 µM | – | – | – |
| O=C(O)c1cc2c([nH]1)C(Cc1cccc(Br)c1)CC2 (single isomer, unassigned) [Compound 127, 6-(3-bromobenzyl)-1,4,5,6-tetrahydrocyclopenta[b]pyrrole-2-carboxylic acid] | ≤ 0.1 µM | – | – | – |
| CC(C)(CC1CCc2[nH]c(C(=O)O)cc21)c1ccccc1 (stereo not shown) [Compound 35, 4-(2-methyl-2-phenylpropyl)-1,4,5,6-tetrahydrocyclopenta[b]pyrrole-2-carboxylic acid] | ≤ 100 µM | – | – | – |
| O=C(O)c1cc2c([nH]1)C(CCc1ccccc1)CC2 (single isomer, unassigned) [Compound 28, 6-phenethyl-1,4,5,6-tetrahydrocyclopenta[b]pyrrole-2-carboxylic acid] | ≤ 1 µM | – | – | – |

The next lines start with results.

| IC50 (Human DAAO) | Compound | Cerebellum D-serine at 2 hours ([1]; dose 30 mg/kg) | Cerebellum D-serine at 6 hours ([1]; dose 30 mg/kg) | also measured |
| --- | --- | --- | --- | --- |
| > 100 µM | CCOC(=O)c1[nH]c2c(c1O)CCC2 [Compound 137, ethyl 3-hydroxy-1,4,5,6-tetrahydrocyclopenta[b]pyrrole-2-carboxylate] | (+) (2.5-4.9 = (+)) | (+) (2.5-4.9 = (+)) | – |
| ≤ 0.1 µM | COc1cccc(CC2CCc3[nH]c(C(=O)O)cc32)c1 (single isomer, unassigned) [Compound 68, 4-(3-methoxybenzyl)-1,4,5,6-tetrahydrocyclopenta[b]pyrrole-2-carboxylic acid] | (+) (2.5-4.9 = (+)) | (+) (2.5-4.9 = (+)) | – |
| ≤ 0.1 µM | O=C(O)c1cc2c([nH]1)C[C@@H]1C[C@H]21 (racemic) [Compound 138, ±(1aS,5aS)-1a,4,5,5a-tetrahydro-1H-4-aza-cyclopropa[α]pentalene-3-carboxylic acid] | – | – | Cerebellum D-serine at 2 hours ([1]; dose 60 mg/kg): (++) (>5 = (++)); Cerebellum D-serine at 6 hours ([1]; dose 60 mg/kg): (++) (>5 = (++)) |
| ≤ 0.1 µM | N#Cc1cccc(C2CCc3[nH]c(C(=O)O)cc32)c1 (stereo not shown) [Compound 105, 4-(3-cyanophenyl)-1,4,5,6-tetrahydrocyclopenta[b]pyrrole-2-carboxylic acid] | – | – | Cerebellum D-serine at 2 hours ([1]; dose 60 mg/kg): (−) (<2.5 = (−)) |
| ≤ 0.1 µM | O=C(O)c1cc2c([nH]1)C(Cc1cccc(Cl)c1)CC2 (single isomer, unassigned) [Compound 123, 6-(3-chlorobenzyl)-1,4,5,6-tetrahydrocyclopenta[b]pyrrole-2-carboxylic acid] | (+) (2.5-4.9 = (+)) | (+) (2.5-4.9 = (+)) | – |
| ≤ 0.1 µM | O=C(O)c1cc2c([nH]1)CCC2Cc1ccc2ccccc2c1 (racemic) [Compound 78, 4-(naphthalen-2-ylmethyl)-1,4,5,6-tetrahydrocyclopenta[b]pyrrole-2-carboxylic acid] | (+) (2.5-4.9 = (+)) | (+) (2.5-4.9 = (+)) | – |
| ≤ 0.1 µM | Cc1cc(F)ccc1CC1CCc2[nH]c(C(=O)O)cc21 (single isomer, unassigned) [Compound 53, 4-(4-fluoro-2-methylbenzyl)-1,4,5,6-tetrahydrocyclopenta[b]pyrrole-2-carboxylic acid] | – | – | Cerebellum D-serine at 2 hours ([1]; dose 10 mg/kg): (+) (2.5-4.9 = (+)); Cerebellum D-serine at 6 hours ([1]; dose 10 mg/kg): (−) (<2.5 = (−)) |
| ≤ 0.1 µM | O=C(O)c1cc2c([nH]1)[C@@H]1C[C@@H]1C2 [Compound 146, (1aR,5aR)-1a,2,5,5a-tetrahydro-1H-2-aza-cyclopropa[α]pentalene-3-carboxylic acid] | – | – | Cerebellum D-serine at 2 hours ([1]; dose 60 mg/kg): (++) (>5 = (++)); Cerebellum D-serine at 6 hours ([1]; dose 60 mg/kg): (++) (>5 = (++)) |
| ≤ 0.1 µM | O=C(O)c1cc2c([nH]1)CCC2c1ccc(F)c(F)c1 (stereo not shown) [Compound 97, 4-(3,4-difluorophenyl)-1,4,5,6-tetrahydrocyclopenta[b]pyrrole-2-carboxylic acid] | – | – | Cerebellum D-serine at 2 hours ([1]; dose 60 mg/kg): (+) (2.5-4.9 = (+)); Cerebellum D-serine at 6 hours ([1]; dose 60 mg/kg): (+) (2.5-4.9 = (+)) |
| ≤ 0.1 µM | C[C@H]1[C@H]2Cc3[nH]c(C(=O)O)cc3[C@@H]12 (racemic) [Compound 141, ±(1S,1aS,5aR)-1-methyl-1a,4,5,5a-tetrahydro-1H-4-aza-cyclopropa[α]pentalene-3-carboxylic acid] | – | – | – |
| ≤ 1 µM | Cc1ccc(CC2CCc3[nH]c(C(=O)O)cc32)cc1C (stereo not shown) [Compound 71, 4-(3,4-dimethylbenzyl)-1,4,5,6-tetrahydrocyclopenta[b]pyrrole-2-carboxylic acid] | – | – | – |
| ≤ 1 µM | O=C(O)c1cc2c([nH]1)CCC2c1cc(F)cc(F)c1 (racemic) [Compound 98, 4-(3,5-difluorophenyl)-1,4,5,6-tetrahydrocyclopenta[b]pyrrole-2-carboxylic acid] | – | – | – |
| ≤ 1 µM | O=C(O)c1cc2c([nH]1)C(c1cccc(Cl)c1)CC2 (stereo not shown) [Compound 114, 6-(3-chlorophenyl)-1,4,5,6-tetrahydrocyclopenta[b]pyrrole-2-carboxylic acid] | – | – | – |
| ≤ 0.1 µM | O=C(O)c1cc2c([nH]1)CCC2Cc1ccc(Cl)cc1 (racemic) [Compound 14, 4-(4-chlorobenzyl)-1,4,5,6-tetrahydrocyclopenta[b]pyrrole-2-carboxylic acid] | – | – | – |
| ≤ 0.1 µM | O=C(O)c1cc2c([nH]1)CCC2Cc1ccc(Cl)c(Cl)c1 (racemic) [Compound 57, 4-(3,4-dichlorobenzyl)-1,4,5,6-tetrahydrocyclopenta[b]pyrrole-2-carboxylic acid] | – | – | – |
